One experiment has as its target T1, USP8 (Homo sapiens, UniProt P40818).
T1 sequence (P40818 1-1118): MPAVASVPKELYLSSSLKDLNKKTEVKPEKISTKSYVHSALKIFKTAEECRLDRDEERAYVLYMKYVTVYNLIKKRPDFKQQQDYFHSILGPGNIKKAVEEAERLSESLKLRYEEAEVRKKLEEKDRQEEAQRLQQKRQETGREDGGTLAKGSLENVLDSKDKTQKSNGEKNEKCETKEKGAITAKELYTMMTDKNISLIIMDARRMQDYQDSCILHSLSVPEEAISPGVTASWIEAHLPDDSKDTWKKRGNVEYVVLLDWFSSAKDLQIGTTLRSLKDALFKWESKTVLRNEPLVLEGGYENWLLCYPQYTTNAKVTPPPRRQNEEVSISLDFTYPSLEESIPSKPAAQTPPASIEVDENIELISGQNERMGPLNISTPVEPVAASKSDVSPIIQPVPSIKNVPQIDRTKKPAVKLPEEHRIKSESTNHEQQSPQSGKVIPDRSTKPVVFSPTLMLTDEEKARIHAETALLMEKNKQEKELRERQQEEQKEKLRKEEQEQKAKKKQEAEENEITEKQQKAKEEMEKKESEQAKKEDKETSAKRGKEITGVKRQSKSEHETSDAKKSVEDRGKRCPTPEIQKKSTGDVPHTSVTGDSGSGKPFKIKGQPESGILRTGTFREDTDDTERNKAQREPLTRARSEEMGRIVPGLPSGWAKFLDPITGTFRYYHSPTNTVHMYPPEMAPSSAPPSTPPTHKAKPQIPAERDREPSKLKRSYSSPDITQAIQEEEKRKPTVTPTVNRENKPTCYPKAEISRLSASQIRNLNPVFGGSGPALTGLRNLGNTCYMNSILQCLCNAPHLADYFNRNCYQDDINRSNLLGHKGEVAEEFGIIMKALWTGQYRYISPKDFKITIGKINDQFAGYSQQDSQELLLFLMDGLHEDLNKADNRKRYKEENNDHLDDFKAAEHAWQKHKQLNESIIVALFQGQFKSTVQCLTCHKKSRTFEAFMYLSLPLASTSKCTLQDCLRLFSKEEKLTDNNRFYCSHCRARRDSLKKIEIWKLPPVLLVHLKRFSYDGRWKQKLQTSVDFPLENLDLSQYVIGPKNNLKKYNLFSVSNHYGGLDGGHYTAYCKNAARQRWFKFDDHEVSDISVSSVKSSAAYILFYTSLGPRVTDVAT
Put plainly: GST-Ub52-Flag HTRF deubiquitinating enzyme assay, USP8. For orientation: In TR-FRET formats the signal depends on donor and acceptor labels being close together.

The target of the next experiment is USP7 (Homo sapiens, UniProt Q93009). Put plainly: GST-Ub52-Flag HTRF deubiquitinating enzyme assay, USP7. The conditions noted are these: GST-Ub52-Flag substrate, USP7 200 pM. It is filed as biochemical. Set-up: Full-length wild-type human USP7 and its catalytic mutant; His tag (pFastBac-HT vector) (N); made in house; host or cells: Spodoptera frugiperda Sf9 (or High Five) insect cells, baculovirus. The protocol:
Bacmid DNA was prepared by an alkaline lysis procedure. The integrity of the bacmid minipreps and their orientation were checked by PCR, using generic and specific primers. Sf9 insect cells were cultured in InsectXpress medium (Cambrex) at 27° C. and transfected with the corresponding bacmid, using GeneShuttle 40 (Q-BIOgen). Viruses were recovered in the supernatant 72 h after transfection. Viruses were amplified by infecting insect cells (Sf9 or High Five cells; invitrogen) in 50 ml InsectXpress medium in a 150 cm^2 cell culture flask with 500 μl of the supernatant from transfected Sf9 cells. Following the second round of amplification, infected cells were recovered by rapid SDS lysis, boiled for 5 min at 100° C., sonicated briefly and centrifuged for 20 min at 14,000 g.
Flow Through was recovered.

Chain of USP7 (Q93009 whole entry): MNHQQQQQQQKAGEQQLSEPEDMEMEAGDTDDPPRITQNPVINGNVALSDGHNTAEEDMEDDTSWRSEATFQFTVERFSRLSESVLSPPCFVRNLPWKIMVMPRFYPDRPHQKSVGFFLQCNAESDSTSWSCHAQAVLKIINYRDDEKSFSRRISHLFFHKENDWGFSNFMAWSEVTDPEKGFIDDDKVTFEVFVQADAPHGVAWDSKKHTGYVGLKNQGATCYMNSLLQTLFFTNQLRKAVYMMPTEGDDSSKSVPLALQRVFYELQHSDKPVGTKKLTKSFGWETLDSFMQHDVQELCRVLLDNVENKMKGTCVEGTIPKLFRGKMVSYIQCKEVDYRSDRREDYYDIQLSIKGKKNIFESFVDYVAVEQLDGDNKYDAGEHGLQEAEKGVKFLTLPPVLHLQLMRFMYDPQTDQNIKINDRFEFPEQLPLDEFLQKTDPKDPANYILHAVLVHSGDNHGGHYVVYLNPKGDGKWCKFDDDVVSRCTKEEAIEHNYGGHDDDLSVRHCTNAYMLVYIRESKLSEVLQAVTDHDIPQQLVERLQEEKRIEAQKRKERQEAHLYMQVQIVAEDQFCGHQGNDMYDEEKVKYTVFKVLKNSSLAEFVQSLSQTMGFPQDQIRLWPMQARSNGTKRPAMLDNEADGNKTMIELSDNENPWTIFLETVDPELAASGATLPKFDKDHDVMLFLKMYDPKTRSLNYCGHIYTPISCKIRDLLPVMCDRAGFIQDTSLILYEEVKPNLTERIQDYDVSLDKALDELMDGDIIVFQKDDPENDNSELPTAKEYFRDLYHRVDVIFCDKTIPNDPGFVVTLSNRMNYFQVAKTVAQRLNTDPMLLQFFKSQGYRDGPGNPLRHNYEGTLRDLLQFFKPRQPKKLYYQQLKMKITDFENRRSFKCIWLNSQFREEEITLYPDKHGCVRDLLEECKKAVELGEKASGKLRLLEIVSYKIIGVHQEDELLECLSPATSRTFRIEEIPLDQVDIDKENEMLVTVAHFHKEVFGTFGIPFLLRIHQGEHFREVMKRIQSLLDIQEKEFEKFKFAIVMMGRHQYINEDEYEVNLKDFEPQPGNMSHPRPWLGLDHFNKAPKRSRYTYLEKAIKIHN
Excerpt for USP8: The cDNA encoding USP8 was obtained by PCR amplification from placenta mRNA. USP8 cDNA was subcloned by PCR into a baculovirus expression vector (pFastBac-HT; Invitrogen). A cDNA encoding a mutated USP8 was generated by mutagenic PCR. […] The sequences were ascertained by sequencing of the entire open reading frame. Bacmids encoding USP8 were generated following DH10bac transposition. The corresponding bacmids were transfected into insect cells (Sf9). Viruses were recovered from culture supernatant and amplified twice. Insect cells (Sf9 or High Five; Invitrogen) were infected for 72 hours. […] Proteins were affinity purified on metal affinity resins (Talon Metal affinity resin; BD Biosciences). Bound materials were extensively washed in wash buffer (50 mM Sodium Phosphate pH 7.0; 300 mM NaCl; 10 mM imidazole; 0.5% Triton X-100; 10% glycerol) and eluted from the resin in 250 mM imidazole-containing wash buffer. Proteins were dialyzed in dialysis buffer (Tris HCl pH 7.6 20 mM; NaCl 200 mM; DTT 1 mM; EDTA 1 mM; 10% Glycerol).
A cDNA encoding the fusion protein between ubiquitin and the ribosomal protein L40 (ub52 or uba52 or ubiquitin-L40) was amplified from human RNA using a proprietary human placenta library. The cDNA was subcloned into a bacterial expression vector (pGEX-2T, GE Healthcare), including an additional flag tag at the carboxyl end of the encoded protein.
For production and purification of recombinant proteins, the plasmid pGEX-2T-Ub52-flag was transformed into E. coli BL21 (Stratagene), grown in LB medium supplemented with 100 mg/ml ampicillin (LB ampi) at 37° C. overnight and then diluted 1/100 in LB ampi. The cells were incubated at 37° C. until an A600=0.6-0.8 was reached. After induction with 0.1 mM isopropyl-β-D-thiogalactopyranoside (IPTG), the culture was incubated at 30° C. for 180 min.
Cells were harvested by centrifugation for 15 min at 7000×g at 4° C. Bacterial pellets were lysed in NETN (Tris HCl pH 8.0; EDTA 1 mM; NP40 0.5%; protease inhibitor cocktail, PMSF 1 mM) and briefly sonicated. Insoluble material was removed by centrifugation 30 min at 14000×g. […] Briefly, soluble fraction was incubated on Glutathione beads pre-equilibrated in NETN buffer+0.5% Milk for 120 min at 4° C. Flow Through was recovered. Beads were extensively washed: the last wash was performed in Tris HCl pH 7.6 20 mM; NaCl 100 mM; MgCl2 12 mM. Elutions were performed using 20 mM Reduced Glutathione in 50 mM Tris HCl pH 8.0, NaCl 120 mM. […] Elutions were dialysed over night at 4° C. in Tris HCl pH 7.6 20 mM; NaCl 50 mM; DTT 0.5 mM.
The use of GST-Ub52-Flag is based on the time-resolved measurement of fluorescence emitted by transfer in homogenous medium.
The assay is carried out on multiwell assay plates. The plates are analyzed on a PHERAstar fluorimeter (BMG) after an overnight incubation at 4° C.
The enzyme reaction is carried out by mixing GST-Ub52-flag solution with 5 μl of USP7 solution (200 pM final) or 5 μl of USP8 (400 pM final). This mixture is incubated for one hour at room temperature on a multiwell assay plate. […] The plate is read after an overnight incubation at 4° C. on a PHERAstar fluorimeter (BMG).
The decrease in the signal correlates with the increase in enzyme activity i.e. the cleavage of GST-Ub52-Flag substrate.
Data (mean values+/−standard deviation) were analyzed as % of control (no compound) and plotted as percentage versus the Log of the compound concentration using GraphPad (Prism).

As for `O=C(COc1cccc(F)c1)N1CCC(O)(Cn2cnc3ccccc3c2=O)CC1` [Example 8, 3-({1-[2-(3-fluorophenoxy)acetyl]-4-hydroxypiperidin-4-yl}methyl)-3,4-dihydroquinazolin-4-one], the IC50 was greater than 200 µM against USP8 and 224 µM on USP7.

What is called IC50 is the point on the concentration scale where inhibition reaches its midpoint.

The record behind these values is patent publication US9546150B2, “Substituted quinazolin-4-ones for inhibiting ubiquitin specific protease 7” (HYBRIGENICS SA, priority 2011, dated 2017).
